Source: PubChem BioAssay AID1996
Converted amounts (≈) assume the structure as drawn.

Settings: buffer; pH 7.4; 200.0 µM

Row | solubility kinetic | Compound
1 | 0.0048 mg/mL (≈ 15.8 µM) | Cc1[nH]c2ccccc2c1SCC(=O)Nc1nccs1
2 | 0.0357 mg/mL (≈ 105 µM) | COc1cccc(CC(CC(=O)O)C(=O)Nc2cc(C)ccc2C)c1 (centres undefined)
3 | 0.0155 mg/mL (≈ 62.7 µM) | CCOc1ccccc1NC(=O)Nc1ccon1
4 | 0.0165 mg/mL (≈ 48.2 µM) | Cc1noc(C)c1COc1ccc(C(=O)NCc2cccs2)cc1
5 | 0.0097 mg/mL (≈ 30.3 µM) | COc1ccc(NC(=O)c2cccc(-c3ccc(O)cc3)c2)cn1
6 | 0.0103 mg/mL (≈ 35.6 µM) | CCOC(=O)c1[nH]cnc1C(=O)Nc1ccccc1OC
7 | 0.0162 mg/mL (≈ 49.5 µM) | O=C(Nc1cccc2ncccc12)c1cccc(Br)c1
8 | 0.0059 mg/mL (≈ 18 µM) | CCOc1ccc(CCNC(=O)Nc2ccccc2)cc1OCC
9 | 0.0012 mg/mL (≈ 3.41 µM) | CCCCn1c(-c2cccs2)nc2oc3ccccc3c(=O)c2c1=O
10 | 0.0371 mg/mL (≈ 124 µM) | COc1ccc(C(=O)NCCNC(=O)c2cnccn2)cc1
11 | 0.0324 mg/mL (≈ 127 µM) | CC(=O)c1ccc(NC(=O)Nc2cccnc2)cc1
12 | 0.0083 mg/mL (≈ 26.1 µM) | O=C1c2ccc([N+](=O)[O-])cc2S(=O)(=O)N1Cc1ccccc1
13 | > 0.0461 mg/mL | Cc1ccc2nc(NCCC(=O)O)nc(-c3ccccc3)c2c1
14 | 0.0142 mg/mL (≈ 52.9 µM) | O=C(COc1ccc2c(c1)CCC2)Nc1ccccn1
15 | 0.0224 mg/mL (≈ 84.1 µM) | O=C(O)Cn1c(Cc2ccccc2)nc2ccccc21
16 | 0.0208 mg/mL (≈ 83.4 µM) | Cc1ccc2cccc(OCc3ccccc3)c2n1
17 | 0.0096 mg/mL (≈ 28.1 µM) | CCOc1ccccc1NC(=O)C(=O)CC(=O)c1cccc(OC)c1
18 | 0.0087 mg/mL (≈ 27.8 µM) | CCCC(=O)Nc1ccc(NC(=O)c2cccc(OC)c2)cn1

Row | solubility kinetic | Compound
19 | 0.0028 mg/mL (≈ 6.39 µM) | CC(C)C(=O)Nc1ccc(N2CCOCC2)c(S(=O)(=O)Nc2ccccc2Cl)c1
20 | 0.0442 mg/mL (≈ 138 µM) | CS(=O)(=O)c1ccc(NCCc2ccccn2)c([N+](=O)[O-])c1
21 | > 0.064 mg/mL | N#Cc1ccc(C(=O)OCC(=O)Nc2cccc(S(=O)(=O)NC3=NCCC3)c2)cc1
22 | 0.0263 mg/mL (≈ 100 µM) | O=C(NCc1ccccc1)c1ccc2ccccc2n1
23 | 0.032 mg/mL (≈ 107 µM) | Cc1ccc(S(=O)(=O)n2c(C)nc3cc(C)ccc32)cc1
24 | > 0.0318 mg/mL | O=C(O)c1cc2c(cn1)[nH]c1ccccc12
25 | > 0.074 mg/mL | CC(=O)Nc1ccc(S(=O)(=O)Nc2nc3ccccc3nc2Nc2ccc(C(=O)O)c(O)c2)cc1
26 | 0.0019 mg/mL (≈ 6.46 µM) | O=C(COC(=O)c1c[nH]c2ccccc12)Nc1ccccc1
27 | 0.0127 mg/mL (≈ 44.5 µM) | Cc1ccc2c(c1)N(Cc1cccc(F)c1)C(=O)C(C)O2 (centres undefined)
28 | > 0.0464 mg/mL | Cc1cc(Cl)nc(Cl)c1C(=O)NCCc1ccccc1
29 | 0.0302 mg/mL (≈ 101 µM) | CCOC(=O)C(=O)Nc1ccc(OCc2ccccc2)cc1
30 | > 0.0498 mg/mL | Cc1nc2ccccc2c2c1C(=O)N(c1cccc(C(=O)O)c1)C2=O
31 | > 0.0426 mg/mL | C/C(=N\NC(=O)c1cccc([N+](=O)[O-])c1)c1cccnc1
32 | 0.0344 mg/mL (≈ 143 µM) | CCc1cccc(C)c1NC(=O)c1cccnc1
33 | 0.0103 mg/mL (≈ 35.5 µM) | NC(=O)c1ccc(N=Cc2c(O)ccc3ccccc23)cc1
34 | > 0.0366 mg/mL | COc1ccc(C(=O)N/N=C\c2ccoc2)cc1
35 | 0.0083 mg/mL (≈ 26.1 µM) | Cc1cc(OCC(=O)N(C)Cc2ccccc2)cc(C)c1Cl
36 | 0.0376 mg/mL (≈ 124 µM) | COc1cccc(S(=O)(=O)Nc2noc3ccccc23)c1

Second part, the compound before the results:

Row | Compound | solubility kinetic
37 | Cc1cc(NC(=O)CSc2nccn2-c2ccc([N+](=O)[O-])cc2)no1 | 0.0338 mg/mL (≈ 94.1 µM)
38 | COC(=O)C1CCN(C(=O)COC(=O)c2cc(S(=O)(=O)N3CCOCC3)ccc2C)CC1 | > 0.0703 mg/mL
39 | CCC(C)[C@H](NC(=O)NCCCOC(C)C)C(=O)OC (some centres undefined) | > 0.0433 mg/mL
40 | O=C(Nc1cc(S(=O)(=O)N2CCOCC2)ccc1Cl)c1ccncc1 | > 0.0573 mg/mL
41 | CCCc1nc2sc3c(c2c(=O)[nH]1)CCCC3 | 0.0013 mg/mL (≈ 5.23 µM)
42 | CCOC(=O)c1sc2ncnc(Nc3cccc(C(=O)O)c3)c2c1C | > 0.0536 mg/mL
43 | Oc1ccc(Cl)cc1C=Nc1ccc(Br)cc1 | 0.0214 mg/mL (≈ 68.9 µM)
44 | N#CC1(NC(=O)CSc2ccccn2)CCCCC1 | > 0.0413 mg/mL
45 | COc1ccc(C(=O)NCCCNC(=O)c2cccnc2)cc1OC | 0.0445 mg/mL (≈ 130 µM)
46 | Cn1cnc([N+](=O)[O-])c1SCCO | > 0.0305 mg/mL
47 | COc1ccc(Cl)cc1NC(=S)NCCc1ccc(F)cc1 | 0.0137 mg/mL (≈ 40.4 µM)
48 | CC(=O)N=C1SC2CS(=O)(=O)CC2N1Cc1ccc(C)cc1 (centres undefined) | 0.0197 mg/mL (≈ 58.2 µM)
49 | CC1(C)Cc2nc3oc4c(SCC(N)=O)ncnc4c3cc2CO1 | 0.0178 mg/mL (≈ 51.7 µM)
50 | Cc1ccc(NC(=O)COC(=O)c2ccc(NC(=O)CC#N)cc2)cc1S(=O)(=O)N1CCOCC1 | 0.0236 mg/mL (≈ 47.1 µM)
51 | Cc1nc2ccccc2c(=O)n1-c1ccc(-c2ccccc2)cc1 | < 0.0003 mg/mL
52 | Cc1ccc(NC(=O)c2ccc3[nH]c(=O)c(=O)[nH]c3c2)nc1 | 0.0087 mg/mL (≈ 29.4 µM)
53 | CSc1ncc(C(C)=O)c(C)n1 | > 0.0273 mg/mL
54 | Cc1ccc(-c2cc[n+](Cc3ccccc3)cc2)cc1.[Cl-] | > 0.0444 mg/mL
55 | CC(=O)Nc1ccc(NC(=O)CNC(=O)c2cccc(C)c2)cc1 | 0.0204 mg/mL (≈ 62.7 µM)
56 | O=S(=O)(c1ccc2c(c1)CCC2)N1CCNCC1 | > 0.04 mg/mL
57 | CC(C)(C)c1ccc(C(=O)OCCN2CCCCC2)cc1.Cl | 0.046 mg/mL
58 | Fc1ccc(NC(=S)Nc2nccs2)cc1 | 0.0149 mg/mL (≈ 58.8 µM)
59 | Cc1ccccc1C(=O)N1CCC(C(=O)N2CCN(Cc3ccc4c(c3)OCO4)CC2)CC1 | 0.0591 mg/mL (≈ 131 µM)
60 | CCCSc1nc2sc3c(c2c(=O)n1CC)CC(C)(C)OC3 | < 0.0004 mg/mL

Row | Compound | solubility kinetic
61 | Cc1[nH]ccc(=O)c1OCC(=O)O | > 0.0275 mg/mL
62 | Fc1ccc(-n2cc(-c3ccccc3)c3c(=S)nc[nH]c32)cc1 | < 0.0002 mg/mL
63 | Cc1ccc(NC(=O)Nc2ccc3c(c2)CCC3)cc1C | < 0.0003 mg/mL
64 | O=C(Nc1ccc(OC(F)(F)F)cc1)c1ccc2c(c1)no[n+]2[O-] | 0.0011 mg/mL (≈ 3.24 µM)
65 | O=C(NCCNC(=O)c1ccccc1F)c1ccccn1 | > 0.0431 mg/mL
66 | CN(C)c1cccc(C(=O)NCC(c2ccco2)N(C)C)c1 (centres undefined) | > 0.0452 mg/mL
67 | CCOP(=O)(c1ccc(N(C)C)cc1)C(O)c1ccccc1F (centres undefined) | > 0.0506 mg/mL
68 | Cc1ccc(N2CC(C(=O)N3CCOCC3)CC2=O)cc1Cl (centres undefined) | > 0.0484 mg/mL
69 | NC(=O)C1CCN(c2ccc(S(=O)(=O)N3CCCCC3)cc2[N+](=O)[O-])CC1 | 0.0076 mg/mL (≈ 19.2 µM)
70 | Nc1ncn([C@@H]2O[C@H](CO)[C@@H](O)[C@H]2O)c(=O)n1 | > 0.0366 mg/mL
71 | C=CCNC(=S)N(C1CCCCC1)C1CCCCC1 | 0.021 mg/mL (≈ 74.9 µM)
72 | O=C(O)/C=C/C(=O)Nc1cc(F)ccc1F | > 0.0341 mg/mL
73 | CC(C)(C)OC(=O)CN1c2cccc3cccc(c23)S1(=O)=O | 0.0149 mg/mL (≈ 46.7 µM)
74 | Cc1cc(Cl)c(S(=O)(=O)N2CCCC2)cc1OCC(N)=O | > 0.0499 mg/mL
75 | CN1CN(c2cccc([N+](=O)[O-])c2)CN=C1N[N+](=O)[O-] | > 0.042 mg/mL
76 | CC(=O)c1sc(NCc2ccc(C)cc2)nc1C | 0.0386 mg/mL (≈ 148 µM)
77 | CN1C[C@@H]2C[C@@H](c3cccn3-c3ccccn3)N3CCC[C@@]23C1=O | > 0.0484 mg/mL
78 | CCOc1cc(CC(=O)N[C@@H](CC(C)C)c2ccccc2N2CCCCC2)ccc1C(=O)O | > 0.0679 mg/mL
79 | O=C1CN(C(=O)COC(=O)c2cccs2)c2ccccc2N1 | 0.0292 mg/mL (≈ 92.3 µM)
80 | N#C/C(=C\c1cccc(O)c1)C(=O)N1CCCCC1 | > 0.0384 mg/mL
81 | CCCCOc1ccc(CN2CCSCC2)cc1 | 0.0141 mg/mL (≈ 53.1 µM)
82 | CC(C)c1ccc(NC(=O)CCCC(=O)NCCc2ccccc2)cc1 | 0.006 mg/mL (≈ 17 µM)
83 | O=C(NCc1cccs1)C1CCCN(C(=O)Nc2ccccc2)C1 (centres undefined) | 0.0217 mg/mL (≈ 63.2 µM)
84 | CCCN(CC(=O)Nc1cc(C)on1)CC(=O)Nc1ccc(F)c(F)c1F | 0.0441 mg/mL (≈ 115 µM)
